# In patent US20070173486A1, “Azetidinecarboxamide derivatives and their use in the treatment of cb1 receptor mediated disordrs” (VERNALIS RESEARCH LIMITED, priority 2003, published 2007):
# Target: T1, recombinant human CB1 receptors (Homo sapiens, UniProt P21554)
# T1 construct: expressed in transfected cells; host or cells: HEK293
# Assay: Binding to CB1 Receptors
# Details: [3H]-SR-141716A 1 nM; membranes from HEK293 cells expressing recombinant hCB1; Ki calculated from IC50 (Cheng-Prusoff)
# Method: The binding of compounds of Formula I to recombinant human CB1 receptors was determined in vitro by standard methods, with reference to the procedure described by Rinaldi-Carmona et al. (Rinaldi-Carmona, M., Pialot, F., Congy, C., Redon, E., Barth, F., Bachy, A., Breliere, J. C., Soubre, P., LeFur, G., Life Sci. 1996, 58(15), 1239-1247). Membranes were prepared from HEK293 cells expressing recombinant hCB1 receptors. Binding assays are performed in a total volume of 250 μL, containing [^3H]-SR-141716A (1 nM final concentration), membranes and test compound. Non-specific binding is determined using CP55,940 (10 μM). Serial dilutions are performed starting from test compounds as 10 mM solutions in DMSO. Compounds are tested over the concentration range 10^−10 M to 10^−5 M. Ki values are calculated from IC50 values using the Cheng-Prusoff equation.
# T1 sequence (P21554 whole entry): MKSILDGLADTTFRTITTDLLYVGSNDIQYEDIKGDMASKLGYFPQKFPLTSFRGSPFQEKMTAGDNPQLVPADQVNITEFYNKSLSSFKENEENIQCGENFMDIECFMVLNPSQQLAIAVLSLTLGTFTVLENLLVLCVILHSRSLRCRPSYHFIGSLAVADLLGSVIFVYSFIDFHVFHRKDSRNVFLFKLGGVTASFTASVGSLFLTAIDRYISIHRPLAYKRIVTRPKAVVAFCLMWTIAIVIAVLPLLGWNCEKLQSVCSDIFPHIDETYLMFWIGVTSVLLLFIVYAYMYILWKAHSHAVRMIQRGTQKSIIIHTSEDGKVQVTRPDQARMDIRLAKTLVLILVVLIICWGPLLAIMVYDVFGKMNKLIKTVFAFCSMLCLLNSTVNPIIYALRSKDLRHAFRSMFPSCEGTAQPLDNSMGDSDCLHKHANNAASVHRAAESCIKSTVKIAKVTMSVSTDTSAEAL
row,Ki,Structure (SMILES)
1,8.6 nM,"CC(C)(C)NC(=O)N1CC(OC(c2ccc(Cl)cc2)c2cccnc2Cl)C1 (single isomer, unassigned) [Example 34, 3-[(S*)-4-chloro-[…]-(2-chloropyridin-3-yl)benzyloxy]-N-(tert-butyl)azetidine-1-carboxamide]"
2,1.5 nM,"CN(Cc1ccccc1)C(=O)N1CC(OC(c2ccc(Cl)cc2)c2ccccc2C(F)(F)F)C1 (stereo not drawn) [Example 4, 3-[2-(trifluoromethyl)-4′-chlorobenzhydryloxy]-N-methyl-N-benzyl-azetidine-1-carboxamide]"
3,3.2 nM,"CO[C@H](C(=O)N1CC(OC(c2ccc(Cl)cc2)c2ccc(Cl)cc2Cl)C1)c1ccccc1 (stereo partly drawn) [Example 11, 3-(2,4,4′-trichlorobenzhydryloxy)-1-[(S)-2-methoxy-2-phenylethanoyl]azetidine]"
4,27.7 nM,"CC(C)(C)NC(=O)N1CC(OC(c2ccc(Cl)cc2)c2cccnc2Cl)C1 (racemic) [Example 32, 3-[4-chloro-[…]-(2-chloropyridin-3-yl)benzyloxy]-N-(tert-butyl)azetidine-1-carboxamide]"
5,0.8 nM,"CC(C)(C)OC(=O)N1CCCN(C(=O)N2CC(OC(c3ccc(Cl)cc3)c3ccccc3Cl)C2)CC1 (stereo not drawn) [Example 1, 4-[3-(2,4′-dichlorobenzhydryloxy)azetidine-1-carbonyl]-[1,4]diazepine-1-carboxylic acid tert-butyl ester]"
6,5.5 nM,"CCCCS(=O)(=O)N1CC(OC(c2ccc(Cl)cc2)c2ccc(Cl)cc2Cl)C1 (stereo not drawn) [Example 20, 1-(n-butyl)sulfonyl-3-(2,4,4′-trichlorobenzhydryloxy)azetidine]"
